This is an account of results in PubChem BioAssay (NCI).

The structures appear in SMILES notation.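 Each compound was tested at five concentrations against cells in 96-well plates for 48 hours. TGI: total growth inhibition.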

Among the test systems are A498 renal; DLD-1 colon; DU-145 prostate; HS 578T breast; KM20L2 colon; LOX IMVI melanoma; M19-MEL melanoma; MDA-MB-231 breast; MOLT-4 leukemia; NCI-H522 lung; SNB-78 CNS; U251 CNS.
Assay in all cases: DTP human tumour cell line panel, 48 h

What is called TGI is the concentration giving total growth inhibition. A higher TGI goes with lower sensitivity of the cells. Regarding `O=C(Nc1nn[nH]n1)c1nc(-c2ccccc2)cc(=O)[nH]1`, the TGI in the assay on A498 renal, in the assay with DLD-1 colon, with DU-145 prostate, in the assay with HS 578T breast, in the assay with KM20L2 colon and in the assay with LOX IMVI melanoma was greater than 100 µM each time. Further, the total growth inhibition concentration (TGI) in the assay on M19-MEL melanoma, in the assay with MDA-MB-231 breast, with MOLT-4 leukemia, in the assay with NCI-H522 lung, in the assay on SNB-78 CNS and in the assay with U251 CNS was greater than 100 µM in each case.

Take `O=C1C2C=CC(n3[nH]c(=O)n(Cc4ccccc4)c3=O)CC2C(=O)N1c1ccc(Br)cc1` (stereo unspecified): the total growth inhibition concentration (TGI) with A498 renal, in the assay on DLD-1 colon, in the assay on KM20L2 colon, in the assay with LOX IMVI melanoma, in the assay on M19-MEL melanoma and in the assay with MOLT-4 leukemia was greater than 100 µM throughout. Moreover, the total growth inhibition concentration (TGI) in the assay on NCI-H522 lung, in the assay with SNB-78 CNS and in the assay with U251 CNS was greater than 100 µM in each case.

Turning to `CCOC(=O)C1=C(O)c2ccc(C)cc2C(=O)C1=O`, the concentration for total growth inhibition (TGI) with A498 renal is greater than 100 µM; in the assay with DLD-1 colon, greater than 100 µM; in the assay with KM20L2 colon, greater than 100 µM; with LOX IMVI melanoma, greater than 100 µM; in the assay with M19-MEL melanoma it was 32.3 µM; in the assay on MOLT-4 leukemia it was greater than 100 µM. Besides, the total growth inhibition concentration (TGI) with NCI-H522 lung, in the assay with SNB-78 CNS and with U251 CNS was greater than 100 µM in each case.

For the compound `CC1(C)O[C@@H](C[C@]2(C#N)C[C@H](CCl)OC(C)(C)O2)C[C@@H](C#N)O1`, the concentration for total growth inhibition (TGI) with A498 renal, with DLD-1 colon, with KM20L2 colon, with LOX IMVI melanoma, in the assay on M19-MEL melanoma and in the assay with MOLT-4 leukemia was greater than 100 µM throughout. For the same compound, the TGI in the assay on NCI-H522 lung, in the assay on SNB-78 CNS and with U251 CNS was greater than 100 µM throughout.

`CCCCN(C)/N=N/c1nc[nH]c1C(N)=O`: the concentration for total growth inhibition (TGI) in the assay on A498 renal, with DLD-1 colon, in the assay with KM20L2 colon, in the assay on LOX IMVI melanoma, in the assay with M19-MEL melanoma and in the assay with MOLT-4 leukemia was greater than 100 µM throughout. The total growth inhibition concentration (TGI) with NCI-H522 lung, in the assay on SNB-78 CNS and with U251 CNS was greater than 100 µM throughout.

As to `[N-]=[N+]=NCC(O)Cn1cnc2c(NC(=O)c3ccccc3)ncnc21` (stereo unspecified), the TGI with A498 renal, in the assay with DLD-1 colon, in the assay with KM20L2 colon, in the assay on LOX IMVI melanoma, with M19-MEL melanoma and in the assay on MOLT-4 leukemia was greater than 100 µM each time. In addition, the TGI with NCI-H522 lung, in the assay on SNB-78 CNS and in the assay on U251 CNS was greater than 100 µM throughout.

For the compound `CSc1cnc2ccccc2c1Sc1c[nH]c2ccccc2c1=O`, the TGI is 47.4 µM with A498 renal; greater than 80.7 µM with DLD-1 colon; 15.9 µM with KM20L2 colon; 67.2 µM with LOX IMVI melanoma; 34.6 µM in the assay on M19-MEL melanoma; greater than 44.7 µM in the assay with MOLT-4 leukemia. For the same compound, the TGI was 11 µM in the assay with NCI-H522 lung, greater than 100 µM in the assay on SNB-78 CNS and 23.8 µM in the assay on U251 CNS.
